Experimental data reported in patent publication US20220000854A1 (CHASE THERAPEUTICS CORPORATION, priority 2018, published 2022).

Legend:
Caenorhabditis elegans = conditions: in vivo; cited from earlier work
[1] = in vivo; cited from earlier work
[2] = co-treatment with pramipexole; cited from earlier work
[3] = large doses, acute systemic administration; cited from earlier work
[4] = in vivo; cited from earlier work; remark: listed apart in the source
alpha-synuclein = alpha-synuclein (Homo sapiens, UniProt P37840); conditions: cited from earlier work
[5] = test system: human neuroblastoma SH-SY5Y cells; conditions: cited from earlier work
[6] = 4.5 mg/day with levodopa, entcapone, selegiline and zonisamide; after switch from immediate-release to extended-release; cited from earlier work
[7] = molecular target: human wild-type alpha-synuclein (Homo sapiens, UniProt P37840); conditions: in vitro, by H2O2 plus cytochrome c; cited from earlier work
[8] = doses approved for motor symptoms of PD; 535 PD patients; cited from earlier work
[9] = 5 mg/day of pramipexole, cited from earlier work
[10] = Period 2 (with oral domperidone) versus Period 1 (pramipexole alone)
Excerpt: The study is single center, single-blind study.
To be enrolled in the study, participants must meet the following inclusion/exclusion key criteria:
History of drug or other significant allergy. • 5.

dopaminergic neurons = conditions: mouse PD model, cited from earlier work
[11] = test system: 6-OHDA-lesioned cell model; conditions: cited from earlier work
brain cell systems = conditions: cited from earlier work
[12] = test system: nigrostriatal dopaminergic neurons; conditions: chronic administration, compared with saline; cited from earlier work
[13] = 25 mg-50 mg, alone or with levodopa; cited from earlier work
[14] = test system: nigral TH-positive neurons; conditions: MPTP-treated mice, 20 mg/kg; cited from earlier work
A53T α-synuclein = molecular target: T1, A53T α-synuclein (Homo sapiens, UniProt P37840, A53T); conditions: oral 40 mg/kg/day, cited from earlier work
T1 construct: host or cells: rat brain in vivo, transduced with a viral vector

[15] = test system: rat corticostriatal slices; conditions: 0.3, 1, 3 and 10 μM; cited from earlier work
nigral dopamine neurons = conditions: 6-OHDA mice, injection of 30 mg/kg; cited from earlier work

Compound: CNCCC(Oc1ccc(C(F)(F)F)cc1)c1ccccc1 (stereo not drawn) [fluoxetine, 1-methylamino-3-phenyl-3-[4-(trifluoromethyl)phenoxy]propane]
- amyloid-β-induced paralysis (Caenorhabditis elegans): significantly delay amyloid-β-induced paralysis
- MPTP induced damage [1]: protect against
- activity of pramipexole in the forced swimming test [2]: enhance the activity of pramipexole
- extracellular concentrations of norepinephrine and dopamine [3]: significant increase in extracellular concentrations of norepinephrine and dopamine
- 6-OHDA induced damage [4]: protect against

Compound: CCCN[C@H]1CCc2nc(N)sc2C1 [pramipexole, (S)-6-propylamino-4,5,6,7-tetrahydro-1,3-benzothiazole-2-amine]
- synuclein oligomer formation / aggregation in vitro (alpha-synuclein): diminishes synuclein oligomer formation in vitro
- aggregation of alpha-synuclein [5]: inhibit the aggregation of alpha-synuclein
- hallucinations [6]: induce hallucinations
- oligomerization of human wild-type alpha-synuclein [7]: decreases the in vitro oligomerization of human wild-type alpha-synuclein
- neuroprotective (disease modifying) activity [8]: failed to evidence neuroprotective (i.e., disease modifying) activity
- patients with nausea [9]: 76%
- patients with vomiting [9]: 39%
- patients not able to complete the study ([9]; presumably intolerable GI adverse events): 36%
- Maximum Tolerated Dose (MTD) of pramipexole [10]: higher than MTD during Period 1
- immunoreactivity for alpha-synuclein (dopaminergic neurons; rotenone): reducing immunoreactivity for alpha-synuclein
- toxic effects of rotenone on dopaminergic neurons (dopaminergic neurons): inhibits the toxic effects of rotenone on dopaminergic neurons

Compound: CCC(C)(C)C(=O)O[C@H]1C[C@@H](C)C=C2C=C[C@H](C)[C@H](CC[C@@H]3C[C@@H](O)CC(=O)O3)[C@H]21 [simvastatin, (1S,3R,7S,8S,8aR)-8-{2-[(2R,4R)-4-hydroxy-6-oxotetrahydro-2H-pyran-2-yl]ethyl}-3,7-dimethyl-1,2,3,7,8,8a-hexahydronaphthalen-1-yl 2,2-dimethylbutanoate]
- neuroprotection against dopaminergic neurodegeneration [11]: robust neuroprotection against dopaminergic neurodegeneration
- protection against 6-hydroxydopamine (6-OHDA) (brain cell systems): protect against the deleterious consequences of the dopaminergic neurotoxin 6-hydroxydopamine

Compound: NS(=O)(=O)Cc1noc2ccccc12 [zonisamide, benzo[d]isoxazol-3-ylmethanesulfonamide]
- synuclein oligomer formation / aggregation in vitro (alpha-synuclein): inhibits the in vitro oligomerization and aggregation of alpha-synuclein
- survival of nigrostriatal dopaminergic neurons [12]: improved the survival of nigrostriatal dopaminergic neurons
- motor symptoms [13]: improve motor symptoms
- loss of nigral TH-positive neurons [14]: reduced the loss of nigral TH-positive neurons
- striatal dopamine depletion [14]: attenuating the associated striatal dopamine depletion
- survival of nigrostriatal dopamine neurons (A53T α-synuclein): no impact on the survival of nigrostriatal dopamine neurons
- pace of degeneration (A53T α-synuclein; four weeks after viral vector injection, versus control group): significantly delayed the pace of degeneration
- rotenone-induced toxicity (loss of corticostriatal field potential amplitude) [15]: significantly reduced the rotenone-induced toxicity
- loss of nigral dopamine neurons (nigral dopamine neurons): prevented the loss of nigral dopamine neurons
